Paper PMC6218115, “In Vitro Potency and Preclinical Pharmacokinetic Comparison of All-D-Enantiomeric Peptides Developed for the Treatment of Alzheimer’s Disease” (Journal of Alzheimer's Disease, 2018)
pIC50, pKd: −log10 of the molar value. Non-standard residues stand in square brackets, D forms with d. Residues, ends and D or L forms follow the SMILES beside them.

Experiments:
Aβ1-42 = target: T1, Aβ1-42 (Homo sapiens, UniProt P05067); assay: Aβ aggregation assay (Thioflavin T); assay type: biochemical; details: 10 μM Aβ1-42, 5 μM ThT, 20 mM sodium phosphate pH 7.4, 50 mM NaCl, 37°C, 70 h, triplicates, nonlinear regression; read-out: IC50, inhibition of Aβ1-42 aggregation into ThT-positive fibrils
T1 construct: Lyophilized Aβ1 - 42 was dissolved in the respective peptide solution; purchased Isoloid GmbH (recombinant) or Bachem AG (synthetic)
Protocol: The potencies of ANK6, tANK6, cANK6r, and D3 to inhibit Aβ1 - 42 aggregation was examined using Thioflavin T (ThT). For this purpose, a buffer solution composed of 20 mM sodium phosphate buffer (pH 7.4) including 50 mM sodium chloride, and 5μM ThT was prepared. Afterwards, ANK6, tANK6, cANK6r, or D3 were diluted in this solution, respectively, to final peptide concentrations between 0.3125 and 80μM (ANK6 and tANK6:0.3125, 0.625, 1.25, 2.5, 5, 10, 20μM; cANK6r: 1.25, 2.5, 5, 10, 20, 40, 80μM; D3:1.17, 2.34, 4.7, 9.4, 18.8, 37.5, 75μM).
The buffer solution only served as negative control (blank). Lyophilized Aβ1 - 42 was dissolved in the respective peptide solution to a final concentration of 10μM. D-peptide solutions with the highest concentration of the respective D-peptide containing all components, except of Aβ1 - 42, served as negative controls. Aβ1 - 42 solved in buffer solution without D-peptide served as positive control. 100μL of each solution were transferred into the wells (triplicates) of 96 well microplates (PS, black, non-binding from Greiner Bio-One, Germany) and fluorescence signals (excitationλ 440 nm, emissionλ 490 nm) were measured in a Polarstar Optima plate reader (BMG, Germany) at 37°C every 20 min for 70 h. Afterwards, the respective blank curves were subtracted from each aggregation curve to exclude background fluorescence. […] The half maximal inhibitory concentration (IC50 value) was determined by plotting the percent inhibition against the respective D-peptides’ concentrations. Datasets were fitted by nonlinear regression (one site – specific binding with Hill slope, GraphPad Prism 5).

[1] = test system: α1-acid glycoprotein (AGP); details: Jiang et al.; read-out: KD of D3 to AGP; cited from earlier work
Text: This had been expected before as all three D-peptides have a positive net charge and AGP is known to more strongly bind positively charged molecules as compared to HSA, which is known to bind rather acidic or neutral molecules. This had been observed previously for D3 in a similar manner. […] The unbound fractions (fu) of the th ...

T1 sequence (P05067 672-713 limits assumed): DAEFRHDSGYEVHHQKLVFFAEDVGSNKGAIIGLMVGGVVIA

In the case of `CC(C)C[C@@H](NC(=O)[C@@H](CCCNC(=N)N)NC(=O)[C@H](NC(=O)[C@@H](CCCNC(=N)N)NC(=O)[C@H]1CCCN1C(=O)[C@H](N)CCCNC(=N)N)[C@H](C)O)C(=O)N[C@H](Cc1c[nH]cn1)C(=O)N[C@@H](C(=O)N[C@H](Cc1c[nH]cn1)C(=O)N[C@H](CCCNC(=N)N)C(=O)N[C@H](CC(N)=O)C(=O)N[C@H](CCCNC(=N)N)C(N)=O)[C@H](C)O` [Peptide D3] (H-[dR][dP][dR][dT][dR][dL][dH][dT][dH][dR][dN][dR]-NH2), the pIC50 (Aβ1-42) is given as 5.14 and the pKd [1] is given as 5.74.
